# Test results as given in ChEMBL document CHEMBL6103588, “Promising thiazolidinedione-thiazole based multi-target and neuroprotective hybrids for Alzheimer's disease: Design, synthesis, in-vitro, in-vivo and in-silico studies” (Eur J Med Chem, 2025).
# pIC50: −log10 of the molar value.
# What was measured:
# [1] = Acute toxicity in male Swiss albino mouse assessed as signs of pain at 1500 mg/kg BW, po administered as single dose via gavage measured after 48 hrs by up-and-down method; assay type: organism-based; settings: in vivo
# [2] = biological target: Cholinesterase (Equus caballus, UniProt P81908); test: Inhibition of equine serum BuChE using butyrylthiocholine iodide as substrate pre-incubated for 10 mins followed by substrate addition and measured after 15 mins by DTNB reagent based Ellman's method
# [3] = Acute toxicity in male Swiss albino mouse assessed as survival time at 50 mg/kg BW, po administered as single dose via gavage by up-and-down method; assay type: organism-based; settings: in vivo
# [4] = in vitro; settings: PAMPA, pH 7.4
# Description: Permeability of compound in PBS at pH 7.4 incubated for 20 hrs by PAMPA-BBB assay
# [5] = biological target: T1, Prostaglandin G/H synthase 2 (Homo sapiens, UniProt P35354)
# T1 sequence (P35354 whole entry): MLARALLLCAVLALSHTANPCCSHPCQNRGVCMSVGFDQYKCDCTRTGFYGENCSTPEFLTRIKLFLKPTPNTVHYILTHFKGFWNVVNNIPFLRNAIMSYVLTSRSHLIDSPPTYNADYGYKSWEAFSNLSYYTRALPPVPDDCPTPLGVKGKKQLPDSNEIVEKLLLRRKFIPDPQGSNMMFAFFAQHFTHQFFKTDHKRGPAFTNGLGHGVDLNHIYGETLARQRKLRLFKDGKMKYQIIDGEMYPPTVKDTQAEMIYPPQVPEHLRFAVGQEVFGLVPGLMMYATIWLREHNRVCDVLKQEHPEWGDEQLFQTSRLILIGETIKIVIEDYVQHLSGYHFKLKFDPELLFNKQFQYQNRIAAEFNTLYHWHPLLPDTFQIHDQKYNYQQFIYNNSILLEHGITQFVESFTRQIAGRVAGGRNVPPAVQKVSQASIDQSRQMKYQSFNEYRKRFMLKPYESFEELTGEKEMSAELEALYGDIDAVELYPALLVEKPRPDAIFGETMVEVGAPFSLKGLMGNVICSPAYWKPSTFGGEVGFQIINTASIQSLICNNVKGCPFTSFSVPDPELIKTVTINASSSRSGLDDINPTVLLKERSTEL
# Description: Inhibition of COX-2 (unknown origin) using arachidonic acid as substrate and in presence of TMPD preincubated for 5 mins followed by substrate addition and measured after 5 mins by UV visible spectrophotometric analysis
# [6] = Acute toxicity in male Swiss albino mouse assessed as lethargy at 1200 mg/kg BW, po administered as single dose via gavage measured after 20 mins by up-and-down method; assay type: organism-based; settings: in vivo
# [7] = system: Mus musculus; test: Antioxidant activity against scopolamine-induced Albino mouse assessed as increase in GSH-Px level in brain at 5 mg/kg measured after 24 hrs; assay type: functional
# [8] = Acute toxicity in male Swiss albino mouse assessed as piloerection at 450 mg/kg BW, po administered as single dose via gavage measured after 1 hrs by up-and-down method; assay type: organism-based; settings: in vivo
# [9] = Acute toxicity in male Swiss albino mouse assessed as survival time at 900 mg/kg BW, po administered as single dose via gavage by up-and-down method; assay type: organism-based; settings: in vivo
# [10] = biological target: T2, Polyunsaturated fatty acid 5-lipoxygenase (Homo sapiens, UniProt P09917); test: Inhibition of 5-LOX (unknown origin) using linoleic acid as substrate incubated for 5 mins followed by substrate addition
# T2 sequence (P09917 whole entry): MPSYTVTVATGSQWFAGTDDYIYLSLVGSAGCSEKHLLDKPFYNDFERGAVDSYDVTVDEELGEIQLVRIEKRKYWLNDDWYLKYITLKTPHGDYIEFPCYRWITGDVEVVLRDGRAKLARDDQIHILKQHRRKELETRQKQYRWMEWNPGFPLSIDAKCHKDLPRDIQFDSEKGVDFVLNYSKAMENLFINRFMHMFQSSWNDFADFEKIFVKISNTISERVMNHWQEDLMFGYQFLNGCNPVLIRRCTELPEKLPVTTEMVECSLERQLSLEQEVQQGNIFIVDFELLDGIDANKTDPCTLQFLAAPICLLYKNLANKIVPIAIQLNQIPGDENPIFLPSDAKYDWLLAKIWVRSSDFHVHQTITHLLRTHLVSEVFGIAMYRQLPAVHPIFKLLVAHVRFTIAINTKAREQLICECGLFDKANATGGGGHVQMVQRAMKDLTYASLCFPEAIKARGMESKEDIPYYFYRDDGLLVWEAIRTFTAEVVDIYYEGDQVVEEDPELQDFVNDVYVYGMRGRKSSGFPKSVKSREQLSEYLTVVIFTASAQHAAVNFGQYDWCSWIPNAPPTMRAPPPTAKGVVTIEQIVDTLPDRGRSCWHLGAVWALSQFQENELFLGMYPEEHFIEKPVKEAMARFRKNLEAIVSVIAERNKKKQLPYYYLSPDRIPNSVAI
# [11] = Neurotoxicity against human SH-SY5Y cells assessed as reduction in cell viability at 100 uM incubated for 24 hrs by MTT assay relative to control; assay type: toxicity, cell-based
# [12] = system: PC-12; test: Neuroprotective activity against H2O2-induced rat PC12 cells assessed as protection against H2O2-induced oxidative stress by measuring cell viability at 25 uM pretreated for 24 hr followed by H2O2 addition and measured after 24 hrs by MTT reagent based spectrophotometric analysis (reference value: 47.32 %); assay type: functional; settings: time 48 hrs
# [13] = Acute toxicity in male Swiss albino mouse assessed as ataxia at 450 mg/kg BW, po administered as single dose via gavage measured after 1 hrs by up-and-down method; assay type: organism-based; settings: in vivo
# [14] = Acute toxicity in male Swiss albino mouse assessed as survival time at 650 mg/kg BW, po administered as single dose via gavage by up-and-down method; assay type: organism-based; settings: in vivo
# [15] = biological target: Beta-secretase 1 (Homo sapiens, UniProt P56817); test: Inhibition of BACE-1 (unknown origin) 667-676- (2, 4-dinitrophenyl) Lys-Arg-Arg amide trifluoroacetate as substrate preincubated for 15 mins followed by substrate addition and measured after 2 hrs by fluorescence spectrometric analysis; settings: read-out: IC50
# [16] = biological target: Prostaglandin G/H synthase 1 (Homo sapiens, UniProt P23219); settings: read-out: IC50
# [17] = Acute toxicity in male Swiss albino mouse assessed as seizures at 1200 mg/kg BW, po administered as single dose via gavage measured after 20 mins by up-and-down method; assay type: organism-based; settings: in vivo
# [18] = Acute toxicity in male Swiss albino mouse assessed as mortality treated po single dose via gavage measured after 48 hrs by up-and-down method; assay type: organism-based; settings: in vivo
# [19] = Acute toxicity in male Swiss albino mouse assessed as mortality rate at 900 mg/kg BW, po administered as single dose via gavage measured after 48 hrs by up-and-down method relative to control; assay type: organism-based; settings: in vivo
# Chain of Cholinesterase (P81908 whole entry): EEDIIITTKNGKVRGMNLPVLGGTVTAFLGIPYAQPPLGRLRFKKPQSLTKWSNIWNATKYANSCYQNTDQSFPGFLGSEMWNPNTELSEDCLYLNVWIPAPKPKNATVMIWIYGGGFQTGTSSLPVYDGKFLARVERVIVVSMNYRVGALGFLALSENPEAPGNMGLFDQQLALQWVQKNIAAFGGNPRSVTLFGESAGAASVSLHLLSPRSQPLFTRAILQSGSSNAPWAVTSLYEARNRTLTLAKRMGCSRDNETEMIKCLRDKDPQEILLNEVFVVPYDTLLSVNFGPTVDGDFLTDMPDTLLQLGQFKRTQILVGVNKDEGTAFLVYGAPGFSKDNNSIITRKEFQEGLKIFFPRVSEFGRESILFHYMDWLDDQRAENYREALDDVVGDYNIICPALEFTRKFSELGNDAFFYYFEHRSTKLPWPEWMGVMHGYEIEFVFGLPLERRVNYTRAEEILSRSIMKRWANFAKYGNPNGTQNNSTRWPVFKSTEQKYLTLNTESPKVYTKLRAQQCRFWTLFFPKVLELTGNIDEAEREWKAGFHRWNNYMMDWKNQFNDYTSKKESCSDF
# Chain of Beta-secretase 1 (P56817 whole entry): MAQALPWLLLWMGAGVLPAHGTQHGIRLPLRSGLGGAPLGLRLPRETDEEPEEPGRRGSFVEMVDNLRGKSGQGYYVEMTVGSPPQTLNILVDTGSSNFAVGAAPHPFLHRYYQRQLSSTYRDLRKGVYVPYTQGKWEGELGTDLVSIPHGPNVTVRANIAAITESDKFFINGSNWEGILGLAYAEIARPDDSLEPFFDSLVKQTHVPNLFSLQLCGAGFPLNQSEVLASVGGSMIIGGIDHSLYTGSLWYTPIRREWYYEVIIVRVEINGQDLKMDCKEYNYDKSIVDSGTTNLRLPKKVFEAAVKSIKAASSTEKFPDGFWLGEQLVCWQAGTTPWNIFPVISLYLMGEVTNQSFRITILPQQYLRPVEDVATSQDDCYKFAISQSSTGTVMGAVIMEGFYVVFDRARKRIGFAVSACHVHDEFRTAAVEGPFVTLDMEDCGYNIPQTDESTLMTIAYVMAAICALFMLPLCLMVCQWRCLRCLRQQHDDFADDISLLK
# Chain of Prostaglandin G/H synthase 1 (P23219 whole entry): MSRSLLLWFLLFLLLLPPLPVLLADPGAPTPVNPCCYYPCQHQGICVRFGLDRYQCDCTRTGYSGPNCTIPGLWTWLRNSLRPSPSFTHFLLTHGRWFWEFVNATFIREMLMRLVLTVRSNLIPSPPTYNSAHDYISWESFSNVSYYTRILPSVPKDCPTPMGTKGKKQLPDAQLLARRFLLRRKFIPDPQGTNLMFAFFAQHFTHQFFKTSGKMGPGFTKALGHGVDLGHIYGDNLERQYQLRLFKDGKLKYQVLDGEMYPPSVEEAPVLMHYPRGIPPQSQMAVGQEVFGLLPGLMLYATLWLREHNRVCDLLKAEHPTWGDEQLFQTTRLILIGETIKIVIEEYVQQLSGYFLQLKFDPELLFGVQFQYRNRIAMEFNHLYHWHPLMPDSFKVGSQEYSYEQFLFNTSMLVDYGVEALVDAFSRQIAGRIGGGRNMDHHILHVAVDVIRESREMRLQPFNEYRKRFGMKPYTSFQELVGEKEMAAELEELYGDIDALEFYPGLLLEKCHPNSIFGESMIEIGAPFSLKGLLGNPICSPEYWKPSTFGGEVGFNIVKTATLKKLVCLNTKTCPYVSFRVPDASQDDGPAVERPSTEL
smiles,measurement,setting,value
COc1cc(/C=C/C(=O)Nc2ccc3sc(NCN4C(=O)CSC4=O)nc3c2)ccc1O,Activity,[1],Toxic
same,pIC50,[2],5.01
same,Time,[3],> 48 h
same,Papp at 20 h,[4],5.7 ×10⁻⁶ cm/s
same,pIC50,[5],6.73
same,Activity,[6],Toxic
same,Activity,[7],230 U/ml
same,Activity,[8],Toxic
same,Time,[9],2 h
same,pIC50,[10],6.74
same,Activity,[11],76%
same,Activity,[12],83.01%
same,Activity,[13],Toxic
same,Time,[14],18 h
same,pIC50,[15],5.62
same,pIC50,[16],4.22
same,Activity,[17],Toxic
same,LD100,"[18]; po, 48 h",1500 mg/kg
same,LD50 at 48 h,"[18]; male, Swiss albino",800 mg/kg
same,mortality at 48 h,[19],66.7%
